Assay results published in publication PMC8538004, “Identification of a Novel Neuropeptide S Receptor Antagonist Scaffold Based on the SHA-68 Core” (Pharmaceuticals, 2021).
“Also recorded” adds a separate entry of the source.

Columns and labels:
[1] = test system: NPS-mediated hyperlocomotion; test: NPS-stimulated locomotor activity (open field); type: in vivo, C57/Bl6 mice
Experimental: Male mice between 8 and 12 weeks of age were used for all tests. C57/Bl6 were obtained from the former NCI colony maintained by Charles River. Animals were housed with ad libitum access to food and water on a 12:12 h light:dark cycle with lights on at 06:00. Experiments were conducted between the hours of 09:00 and 15:00. All experiments were approved by the Institutional Animal Care and Use Committee of the State University of New York at Buffalo (PMY09073N) and conducted in accordance with the National Institutes of Health Guide for the Care and Use of Laboratory animals.
Mice were anesthetized using ketamine (100 mg/kg) and xylazine (5 mg/kg) and were secured to a stereotaxic frame once the appropriate plane of anesthesia was reached. An incision was made in order to expose the skull. […]
Open-field testing was conducted in clear plexiglass cages measuring 40 × 40 cm^2 interfaced by a grid array of infrared beams connected to a computer system which tracked and quantified the animals’ location and movements (OMNITECH Instruments, Columbus, OH, USA). […]
Statistical analyses were performed by ANOVA with Tukey’s multiple comparisons test analysis within GraphPad Prism 8 software (GraphPad Software, San Diego, CA, USA). All results are expressed as mean values ± SEM.

[2] = Glutathione incubation assay; type: physicochemical; settings: 2 mM compound, 18 mM glutathione, MeCN/water, up to 48 h, LC/MS
Experimental: For the glutathione incubation assay, 20 mM stock solutions of compound 14b in MeCN (400 µL) and glutathione GSH in MeCN: Milli-Q H2O (10 mL, 1: 1, v/v) were prepared in separate scintillation vials. To prepare the incubation solution, 100 µL of 14b solution and 900 µL of GSH solution were taken in a clean HPLC vial. The final concentrations of 14b and GSH were 2 mM and 18 mM, respectively. In addition, a 2 mM reference solution of 14b was prepared by adding 100 µL of 14b stock solution to an HPLC vial containing 900 µL of MeCN: H2O (1:1), and an 18 mM reference solution of GSH was prepared by adding 900 µL of GSH stock solution to an HPLC vial containing 100 µL of MeCN.
Low-resolution mass spectra were obtained using an Agilent InfinityLab MSD single quadrupole mass spectrometer system (ESI). […] Chromatograms were detected using 254 and 280 nm wavelengths with 5 µL injections and data were processed using a general walkup method*.
*LC/MS Walkup Method: an Agilent InfinityLab MSD single quadrupole mass spectrometer equipped with an API-ES and an Agilent Infinity II 1260 HPLC equipped with an Agilent Infinity 1260 variable wavelength detector and a Phenomenex Synergi […] Hydro-RP 100A C18 30 × 2 mm column. […] MS Method: using atmospheric pressure ionization–electrospray, positive and negative ions were monitored in the range of 70–700 or 200–2000 (for compounds with a MW > 700).

## CC(C)CC1(c2ccccc2)OC(=O)C2=C1CN(C(=O)NCc1ccccc1)CC2 (single isomer, unassigned; (+)) [Compound 14b, (+) N-benzyl-3-(2-methylpropyl)-1-oxo-3-phenyl-1H,3H,4H,5H,6H,7H-furo[3,4-c]pyridine-5-carboxamide]
[1]; 3 mg/kg i.p. pretreatment, NPS 0.3 nmol ICV, total distance first 10 min, Veh-NPS vs. 14b-NPS p = 0.0389
  Effect on NPS-mediated hyperlocomotion: attenuated; also recorded: able to block; also recorded: sufficient to significantly decrease; also recorded: significantly decreased
[1]; 3 mg/kg i.p., aCSF ICV, Veh-aCSF vs. 14b-aCSF p = 0.8199
  Effect on locomotion on its own: did not decrease locomotion
[2]
  Glutathione adduct formation: No glutathione adduct was identified; also recorded: stable
